In the NIST ThermoML archive (doi:10.1016/j.fluid.2015.01.002):

What was measured:
[1] = xn = mol fraction of the nth substance listed; conditions: 298.15 K, 101 kPa, Liquid, Vibrating tube method
[2] = refractive index (Na D-line) (dimensionless); xn = mol fraction of the nth substance listed; conditions: 298.15 K, 101 kPa, Liquid, Standard Abbe refractometry
[3] = 298.15 K; 101.33 kPa; Liquid; Vibrating tube method
[4] = refractive index (Na D-line) (dimensionless); conditions: 298.15 K; 101.33 kPa; Liquid; Standard Abbe refractometry

COCCO [2-methoxyethan-1-ol] + c1ccccc1
Conditions | mass density, [1] [kg/m3] | refractive index, [2]
x2 = 0.05 | 955.11 | 1.4054
x2 = 0.0998 | 950.35 | 1.4105
x2 = 0.2001 | 940.54 | 1.4193
x2 = 0.2998 | 930.95 | 1.4286
x2 = 0.4 | 921.55 | 1.4385
x2 = 0.4999 | 912.55 | 1.4486
x2 = 0.5999 | 903.8 | 1.4586
x2 = 0.7 | 895.3 | 1.4679
x2 = 0.8 | 887.18 | 1.477
x2 = 0.8998 | 879.76 | 1.4864
x2 = 0.95 | 876.36 | 1.4916

CC#N [acetonitrile]
Conditions | mass density [kg/m3] | refractive index
[3] | 776.64 | –
[4] | – | 1.34143

CC#N [acetonitrile] + Cc1ccccc1
Conditions | mass density, [1] [kg/m3] | refractive index, [2]
x2 = 0.0499 | 784.94 | 1.3557
x2 = 0.1 | 792.57 | 1.3686
x2 = 0.2 | 806.07 | 1.3917
x2 = 0.3 | 817.61 | 1.412
x2 = 0.4 | 827.52 | 1.4308
x2 = 0.4999 | 835.99 | 1.4457
x2 = 0.6 | 843.26 | 1.458
x2 = 0.6999 | 849.43 | 1.4683
x2 = 0.8001 | 854.74 | 1.4785
x2 = 0.9 | 858.99 | 1.487
x2 = 0.9498 | 860.78 | 1.4907

CC#N [acetonitrile] + c1ccccc1
Conditions | mass density, [1] [kg/m3] | refractive index, [2]
x2 = 0.05 | 784.35 | 1.3523
x2 = 0.1 | 791.68 | 1.3638
x2 = 0.2 | 805.24 | 1.3823
x2 = 0.2998 | 817.45 | 1.402
x2 = 0.4001 | 828.54 | 1.4217
x2 = 0.4999 | 838.46 | 1.4378
x2 = 0.6002 | 847.41 | 1.4531
x2 = 0.7004 | 855.36 | 1.466
x2 = 0.7997 | 862.34 | 1.4789
x2 = 0.9002 | 868.48 | 1.4892
x2 = 0.9506 | 871.14 | 1.4929

c1ccccc1 [benzene]
Conditions | mass density [kg/m3] | refractive index
[3] | 873.73 | –
[4] | – | 1.49749

CCCCCCCCCCCCCCCC [hexadecane]
Conditions | mass density [kg/m3] | refractive index
[3] | 770.3 | –
[4] | – | 1.43225

Cc1ccccc1 [toluene]
Conditions | mass density [kg/m3] | refractive index
[3] | 862.34 | –
[4] | – | 1.49367
